# Data as given in patent US20110045101A1, “FUNGICIDAL SUBSTITUTED AZOLES” (E.I. Du Pont De Nemours and Company, priority 2009, published 2011).
# Marks after values point to notes of the source that are not given here.
# Assays:
# Type in all cases: in vivo
# Conditions in all cases: 100 = 100% disease control
# [1] = tested on: Botrytis cinerea; assay: Test C: tomato Botrytis on tomato seedlings, sprayed the day before inoculation, visual disease rating
# Procedure, shortened: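 Compounds were dissolved in acetone (3% of final volume), then suspended in 50/50 acetone/purified water containing 250 ppm polyhydric alcohol ester surfactant. Suspensions were sprayed to run-off on tomato seedlings at 200 ppm, equivalent to 500 g/ha, or at 40 ppm where marked.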
# [2] = tested on: Alternaria solani; assay: Test D: tomato early blight, sprayed the day before inoculation, visual disease rating
# Procedure, shortened: (§1)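 Compounds were dissolved in acetone (3% of final volume), then suspended in 50/50 acetone/purified water with 250 ppm Trem® 014 surfactant. Suspensions at 200 ppm (some at 40 ppm) were sprayed to run-off, 200 ppm being equivalent to 500 g/ha.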
# [3] = tested on: Septoria nodorum; assay: Test F: wheat glume blotch on wheat seedlings, sprayed the day before inoculation, visual disease rating
# Procedure, shortened: as §1
# [4] = tested on: Septoria tritici; assay: Test G: wheat leaf blotch on wheat seedlings, sprayed the day before inoculation, visual disease rating
# Procedure, shortened: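 Disease was rated visually after Septoria tritici inoculation, 48 h saturated incubation at 24°C and 19 days in a 20°C growth chamber. Inoculation followed one day after run-off spraying of seedlings with compound at 200 ppm (≈500 g/ha) or, where marked, 40 ppm, formulated in acetone/water with surfactant.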
# [5] = tested on: Puccinia recondita f. sp. tritici; assay: Test H: wheat leaf rust, test suspension sprayed after inoculation of wheat seedlings, visual disease rating
# Excerpt: General protocol for preparing test suspensions for Tests A-J: The test compounds were first dissolved in acetone in an amount equal to 3% of the final volume and then suspended at the desired concentration (in ppm) in acetone and purified water (50/50 mix) containing 250 ppm of the surfactant Trem® 014 (polyhydric alcohol esters). The resulting test suspensions were then used in tests A-J. Spraying a 200 ppm test suspension to the point of run-off on the test plants was the equivalent of a rate of 500 g/ha. […] Wheat seedlings were inoculated with a spore suspension of Puccinia recondita f. sp. tritici (the causal agent of wheat leaf rust) and incubated in a saturated atmosphere at 20° C. for 24 h, and then moved to a growth chamber at 20° C. for 2 days. […] A dash (-) indicates no test results. All results are for 200 ppm except where followed by “*”, which indicates 40 ppm.
# [6] = tested on: Puccinia recondita f. sp. tritici; assay: Test I: wheat leaf rust on wheat seedlings, sprayed the day before inoculation, visual disease rating
# Procedure, shortened: as §1
# [7] = tested on: Erysiphe graminis f. sp. tritici; assay: Test J: wheat powdery mildew on wheat seedlings, sprayed the day before inoculation, visual disease rating
# Procedure, shortened: as §1
# [8] = 200 ppm, 0 = no control relative to controls
# [9] = 40 ppm (marked *), 0 = no control
SMILES,"Test C disease control rating [1, 8] [%]","Test D disease control rating [2, 8] [%]","Test F disease control rating [3, 8] [%]","Test G disease control rating [4, 8] [%]","Test H disease control rating [5, 8] [%]","Test I disease control rating [6, 8] [%]","Test J disease control rating [7, 8] [%]",also measured
Cc1nc(Cl)c(-c2c(F)cc(F)cc2F)n1-c1ccc(OC(F)F)cc1 [compound 610],99,100,99,99,100,100,100,
CN(C)c1ncn(Cc2ccc(Cl)cc2)c1-c1c(F)ccc(F)c1F [compound 267],,,,,,,,"Test C disease control rating ([1]; 200 ppm, 0 = no control): 98%; Test D disease control rating ([2]; 200 ppm, 0 = no control): 0%; Test F disease control rating ([3]; 200 ppm, 0 = no control): 0%; Test G disease control rating ([4]; 200 ppm, 0 = no control): 91%; Test H disease control rating ([5]; 200 ppm, 0 = no control): 9%; Test I disease control rating ([6]; 200 ppm, 0 = no control): 86%; Test J disease control rating ([7]; 200 ppm, 0 = no control): 97%"
COc1cc(F)c(-n2cnc(C)c2-c2ccc(C)cc2)c(F)c1 [compound 560],,,,,,,,Test C disease control rating ([1]; 40 ppm (marked *)): 99* %; Test D disease control rating ([2]; 40 ppm (marked *)): 0* %; Test F disease control rating ([3]; 40 ppm (marked *)): 0* %; Test G disease control rating ([4]; 40 ppm (marked *)): 65* %; Test H disease control rating ([5]; 40 ppm (marked *)): 33* %; Test I disease control rating ([6]; 40 ppm (marked *)): 79* %; Test J disease control rating ([7]; 40 ppm (marked *)): 93* %
Fc1ccc(F)c(-c2c(Br)nc(Br)n2-c2ccc(Cl)cc2)c1Cl [compound 374],99,99,0,94,0,90,98,
Fc1cccc(-n2c(Br)nc(Cl)c2-c2c(F)cc(F)cc2F)c1 [compound 367],99,100,89,90,9,98,97,
Fc1cc(-n2c(Cl)nc(Cl)c2-c2ccnc(Br)c2)ccc1Cl [compound 485],96,88,0,95,0,98,98,
COc1ccc(-c2c(Cl)nc(Br)n2-c2ccc(F)cc2)c(Cl)c1 [compound 725],100,99,73,99,15,91,98,
Fc1cc(-n2c(Cl)nc(Br)c2-c2c(F)ccc(F)c2Cl)ccc1Cl [compound 463],,,,,,,,Test C disease control rating ([1]; 40 ppm (marked *)): 99* %; Test D disease control rating ([2]; 40 ppm (marked *)): 99* %; Test F disease control rating ([3]; 40 ppm (marked *)): 0* %; Test G disease control rating ([4]; 40 ppm (marked *)): 95* %; Test H disease control rating ([5]; 40 ppm (marked *)): 0* %; Test I disease control rating ([6]; 40 ppm (marked *)): 100* %; Test J disease control rating ([7]; 40 ppm (marked *)): 99* %
COc1ccc(-n2c(Br)nc(C)c2-c2c(F)cccc2F)cn1 [compound 719],99,100,98,99,99,100,100,
Cc1nc(C)n(-c2ccc(Cl)cc2)c1-c1c(F)ccc(F)c1F [compound 416],,,,,,,,"Test C disease control rating [1, 9]: 100* %; Test D disease control rating [2, 9]: 100* %; Test F disease control rating [3, 9]: 0* %; Test G disease control rating [4, 9]: 97* %; Test H disease control rating [5, 9]: 0* %; Test I disease control rating [6, 9]: 26* %; Test J disease control rating [7, 9]: 99* %"
COc1ccc(-c2c(Cl)ncn2-c2ccc(F)cc2)c(Cl)c1 [compound 726],99,99,0,99,0,80,89,
CC(=O)Nc1ccc(-n2c(Br)nc(Cl)c2-c2c(F)cccc2F)cc1 [compound 643],,,,,,,,Test C disease control rating ([1]; 40 ppm (marked *)): 0* %; Test D disease control rating ([2]; 40 ppm (marked *)): 0* %; Test F disease control rating ([3]; 40 ppm (marked *)): 0* %; Test G disease control rating ([4]; 40 ppm (marked *)): 87* %; Test H disease control rating ([5]; 40 ppm (marked *)): 0* %; Test I disease control rating ([6]; 40 ppm (marked *)): 52* %; Test J disease control rating ([7]; 40 ppm (marked *)): 0* %
COc1ccc(F)c(-c2c(Cl)nc(Cl)n2-c2ccc(Cl)c(F)c2)c1F [compound 392],100,100,100,97,60,99,100,
Cc1cccc(-c2c(C)nc(Cl)n2-c2ccc(Cl)c(F)c2)n1 [compound 378],100,0,0,93,0,74,75,
Cc1nc(Cl)c(-c2c(F)ccc(F)c2F)n1Cc1ccc(Cl)cc1 [compound 293],,,,,,,,"Test C disease control rating ([1]; 200 ppm, 0 = no control): 99%; Test D disease control rating ([2]; 200 ppm, 0 = no control): 91%; Test F disease control rating ([3]; 200 ppm, 0 = no control): 0%; Test G disease control rating ([4]; 200 ppm, 0 = no control): 95%; Test H disease control rating ([5]; 200 ppm, 0 = no control): 6%; Test I disease control rating ([6]; 200 ppm, 0 = no control): 99%; Test J disease control rating ([7]; 200 ppm, 0 = no control): 100%"
N#Cc1ccc(-n2cnc(Cl)c2-c2c(F)ccc(C#N)c2F)cc1 [compound 387],0,0,0,0,0,0,0,
COc1cc(F)c(-c2c(Cl)nc(Cl)n2-c2ccc(C)c(C#N)c2)c(F)c1 [compound 572],,,,,,,,Test C disease control rating ([1]; 40 ppm (marked *)): 100* %; Test D disease control rating ([2]; 40 ppm (marked *)): 99* %; Test F disease control rating ([3]; 40 ppm (marked *)): 92* %; Test G disease control rating ([4]; 40 ppm (marked *)): 95* %; Test H disease control rating ([5]; 40 ppm (marked *)): 0* %; Test I disease control rating ([6]; 40 ppm (marked *)): 99* %; Test J disease control rating ([7]; 40 ppm (marked *)): 71* %
Cc1nc(Cl)c(-c2c(F)cc(F)cc2F)n1-c1cccc(F)c1 [compound 370],99,100,87,89,100,100,100,
"CNC(=O)Cc1nc(Br)c(-c2c(F)cccc2F)n1-c1ccc(Cl)cc1 [Compound 571, 4-bromo-1-(4-chlorophenyl)-5-(2,6-difluorophenyl)-N-methyl-1H-imidazole-2-acetamide]",,,,,,,,"pest or weed control at 200 ppm ([1]; Botrytis cinerea, 120 h, 200 ppm, 0 = no control relative to controls): 33%; pest or weed control at 200 ppm ([2]; Alternaria solani, 168 h, 200 ppm, 0 = no control relative to controls): 0%; pest or weed control at 200 ppm ([3]; Parastagonospora nodorum, 264 h, 200 ppm, 0 = no control relative to controls): 0%; pest or weed control at 200 ppm ([4]; Zymoseptoria tritici, 504 h, 200 ppm, 0 = no control relative to controls): 82%; pest or weed control at 200 ppm ([5]; Puccinia recondita, 96 h, 200 ppm, 0 = no control relative to controls): 0%; pest or weed control at 200 ppm ([6]; Puccinia recondita, 168 h, 200 ppm, 0 = no control relative to controls): 90%; pest or weed control at 200 ppm ([7]; Blumeria graminis, 168 h, 200 ppm, 0 = no control relative to controls): 0%"
Fc1cccc(F)c1-n1c(-c2ccc(Cl)cc2)cnc1Cl [compound 341],,,,,,,,"Test C disease control rating [1, 9]: 91* %; Test D disease control rating [2, 9]: 24* %; Test F disease control rating [3, 9]: 0* %; Test G disease control rating [4, 9]: 0* %; Test H disease control rating [5, 9]: 9* %; Test I disease control rating [6, 9]: 0* %; Test J disease control rating [7, 9]: 0* %"
COc1ccc(F)c(-c2c(Cl)nc(C)n2-c2ccc(Cl)nc2)c1F [compound 738],100,100,100,100,96,100,100,
Cc1nc(Cl)n(-c2ccc(F)cc2)c1-c1c(F)cc(F)cc1F [compound 492],,,,,,,,Test C disease control rating ([1]; 40 ppm (marked *)): 94* %; Test D disease control rating ([2]; 40 ppm (marked *)): 100* %; Test F disease control rating ([3]; 40 ppm (marked *)): 0* %; Test G disease control rating ([4]; 40 ppm (marked *)): 82* %; Test H disease control rating ([5]; 40 ppm (marked *)): 0* %; Test I disease control rating ([6]; 40 ppm (marked *)): 0* %; Test J disease control rating ([7]; 40 ppm (marked *)): 0* %
